Data published in ChEMBL document CHEMBL1124251, “Topical nonsteroidal antipsoriatic agents. 2. 2,3-(Alkylidenedioxy)naphthalene analogues of lonapalene” (1988).

Each compound was assayed on Mus musculus (assay: Percent inhibition of arachidonic acid induced mouse ear edema at 2 mg of total dose; Insufficiently soluble in acetone).
Format: functional, organism-based

SMILES | inhibition
O=C(Oc1c2c(c(OC(=O)c3ccccc3)c3cc(Cl)ccc13)OCCCO2)c1ccccc1 | Insufficiently soluble in acetone
O=C(Oc1c2c(c(OC(=O)c3ccccc3)c3cc(Cl)ccc13)OCCO2)c1ccccc1 | Insufficiently soluble in acetone

The compounds below were run on Mus musculus (assay: Percent inhibition of arachidonic acid induced mouse ear edema at 2 mg of total dose).
Format: functional

SMILES | Inhibition
CC(C)(C)C(=O)Oc1c2c(c(OC(=O)C(C)(C)C)c3cc(Cl)ccc13)OCCCO2 | 10%
CC(C)C(=O)Oc1c2c(c(OC(=O)C(C)C)c3cc(Cl)ccc13)OCCCO2 | 27%
CC(=O)Oc1c2c(c(OC(C)=O)c3cc(Cl)ccc13)OCO2 | 61%
CC(C)C(=O)Oc1c2c(c(OC(=O)C(C)C)c3cc(Cl)ccc13)OCCO2 | 75%
O=C(Oc1c2c(c(OC(=O)c3ccccc3)c3cc(Cl)ccc13)OCO2)c1ccccc1 | 10%
CCCC(=O)Oc1c2c(c(OC(=O)CCC)c3cc(Cl)ccc13)OCCO2 | 26%
CCC(=O)Oc1c2c(c(OC(=O)CC)c3cc(Cl)ccc13)OCCCO2 | 10%
CC(C)(C)C(=O)Oc1c2c(c(OC(=O)C(C)(C)C)c3cc(Cl)ccc13)OCO2 | 8%
CC(=O)Oc1c2c(c(OC(C)=O)c3cc(Cl)ccc13)OCCCO2 | 40%
CCCC(=O)Oc1c2c(c(OC(=O)CCC)c3cc(Cl)ccc13)OCCCO2 | 35%
CCC(=O)Oc1c2c(c(OC(=O)CC)c3cc(Cl)ccc13)OCCO2 | 30%
CCC(=O)Oc1c2c(c(OC(=O)CC)c3cc(Cl)ccc13)OCO2 | 35%
CC(C)(C)C(=O)Oc1c2c(c(OC(=O)C(C)(C)C)c3cc(Cl)ccc13)OCCO2 | 41%
CC(=O)Oc1c2c(c(OC(C)=O)c3cc(Cl)ccc13)OCCO2 | 24%
COc1c(OC)c(OC(C)=O)c2cc(Cl)ccc2c1OC(C)=O [LONAPALENE] | 54%
